Laboratory results reported in US20230143604A1, “QW DOSING OF GIP RECEPTOR AGONIST PEPTIDE COMPOUNDS AND USES THEREOF” (TAKEDA PHARMACEUTICAL COMPANY LIMITED, priority 2020, published 2023).
Starred links: 1 amine or outer side, 2 acyl side, 3 side chain; linkers in the order of their positions; H or OH if unused. Positions of bridges follow the written chain, without caps; N, C: chain ends. Non-standard residues stand in square brackets, D forms with d. Residues, ends and D or L forms follow the SMILES beside them. Groups on a side chain read outwards from the residue. Chains are numbered I, II in the order given. *: point of attachment. C18 diacid = O=C(O)CCCCCCCCCCCCCCCCC(=O)*; C17 diacid = O=C(O)CCCCCCCCCCCCCCCC(=O)*; γGlu = O=C(O)[C@H](CCC(=O)[*:2])N[*:1]; NMeY = CN[C@@H](Cc1ccc(O)cc1)C(=O)O; AEEA = NCCOCCOCC(=O)O; Aib = CC(C)(N)C(=O)O

Experiment: Solubility in phosphate buffer pH 7.4
Summary of the method: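 Solubility at pH 7.4 determined by stepwise addition of 200 mM phosphate buffer in 100 μL increments to 3 mg peptide, mixing briefly each time, until no insoluble material remained, then measured by liquid chromatography.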

[1] = pH 7.4, aqueous buffer, pH 7.4 Phosphate Buffer - Solubility, 200 mM Phosphate buffer pH 7.4
[2] = pH 7.4, solubility in phosphate buffer at pH 7.4, 200 mM phosphate buffer pH 7.4

SMILES	solubility [1]	solubility [2]	solubility (pH 7.4)	solubility (pH 7.4, aqueous buffer)
CC[C@H](C)[C@H](NC(=O)[C@H](CCCCN)NC(=O)[C@H](CC(=O)O)NC(=O)[C@H](CC(C)C)NC(=O)[C@H](C)NC(=O)[C@@H](NC(=O)[C@H](CO)NC(=O)[C@H](Cc1ccc(O)cc1)NC(=O)[C@H](CC(=O)O)NC(=O)[C@H](CO)NC(=O)[C@@H](NC(=O)[C@H](Cc1ccccc1)NC(=O)[C@@H](NC(=O)CNC(=O)[C@H](CCC(=O)O)NC(=O)C(C)(C)NC(=O)[C@@H](N)Cc1ccc(O)cc1)[C@@H](C)O)[C@@H](C)CC)[C@@H](C)CC)C(=O)N[C@@H](C)C(=O)N[C@@H](CCC(N)=O)C(=O)N[C@@H](CCC(N)=O)C(=O)N[C@@H](CCCCNC(=O)COCCOCCNC(=O)COCCOCCNC(=O)CC[C@H](NC(=O)CC[C@H](NC(=O)CCCCCCCCCCCCCCCC(=O)O)C(=O)O)C(=O)O)C(=O)N[C@@H](Cc1ccccc1)C(=O)N[C@H](C(=O)N[C@@H](CCC(=O)O)C(=O)N[C@@H](Cc1c[nH]c2ccccc12)C(=O)N[C@@H](CC(C)C)C(=O)N[C@@H](CC(C)C)C(=O)N[C@@H](C)C(=O)N[C@@H](CCC(N)=O)C(=O)N[C@@H](CCCNC(=N)N)C(=O)N1CCC[C@H]1C(=O)N[C@@H](CO)C(=O)N[C@@H](CO)C(=O)NCC(=O)N[C@@H](C)C(=O)N1CCC[C@H]1C(=O)N1CCC[C@H]1C(=O)N1CCC[C@H]1C(=O)N[C@@H](CO)C(=O)O)C(C)C [Compound 134] (H-Y[Aib]EGTFISDYSIALDKIAQQK([AEEA-AEEA-γGlu-γGlu-C17 diacid])FVEWLLAQRPSSGAPPPS-OH)	≥ 30 mg/mL	≥ 15 mg/mL		
CC[C@H](C)[C@H](NC(=O)[C@H](CCCCN)NC(=O)[C@H](CC(=O)O)NC(=O)[C@H](CC(C)C)NC(=O)[C@H](C)NC(=O)[C@@H](NC(=O)[C@H](CO)NC(=O)[C@H](Cc1ccc(O)cc1)NC(=O)[C@H](CC(=O)O)NC(=O)[C@H](CO)NC(=O)[C@@H](NC(=O)[C@H](Cc1ccccc1)NC(=O)[C@@H](NC(=O)CNC(=O)[C@H](CCC(=O)O)NC(=O)C(C)(C)NC(=O)[C@@H](N)Cc1ccc(O)cc1)[C@@H](C)O)[C@@H](C)CC)[C@@H](C)CC)C(=O)N[C@@H](C)C(=O)N[C@@H](CCC(N)=O)C(=O)N[C@@H](CCCNC(=N)N)C(=O)N[C@@H](CCCCNC(=O)COCCOCCNC(=O)COCCOCCNC(=O)CC[C@H](NC(=O)CC[C@H](NC(=O)CCCCCCCCCCCCCCCC(=O)O)C(=O)O)C(=O)O)C(=O)N[C@@H](Cc1ccccc1)C(=O)N[C@H](C(=O)N[C@@H](CCC(=O)O)C(=O)N[C@@H](Cc1c[nH]c2ccccc12)C(=O)N[C@@H](CC(C)C)C(=O)N[C@@H](CC(C)C)C(=O)N[C@@H](C)C(=O)N[C@@H](CCC(N)=O)C(=O)N[C@@H](CCCNC(=N)N)C(=O)N1CCC[C@H]1C(=O)N[C@@H](CO)C(=O)N[C@@H](CO)C(=O)NCC(=O)N[C@@H](C)C(=O)N1CCC[C@H]1C(=O)N1CCC[C@H]1C(=O)N1CCC[C@H]1C(=O)N[C@@H](CO)C(=O)O)C(C)C [Compound 135] (H-Y[Aib]EGTFISDYSIALDKIAQRK([AEEA-AEEA-γGlu-γGlu-C17 diacid])FVEWLLAQRPSSGAPPPS-OH)	≥ 30 mg/mL	≥ 15 mg/mL		
CC[C@H](C)[C@H](NC(=O)[C@H](CO)NC(=O)[C@H](Cc1ccc(O)cc1)NC(=O)[C@H](CC(=O)O)NC(=O)[C@H](CO)NC(=O)[C@@H](NC(=O)[C@H](Cc1ccccc1)NC(=O)[C@@H](NC(=O)CNC(=O)[C@H](CCC(=O)O)NC(=O)C(C)(C)NC(=O)[C@H](Cc1ccc(O)cc1)NC)[C@@H](C)O)[C@@H](C)CC)C(=O)N[C@@H](C)C(=O)N[C@@H](CC(C)C)C(=O)N[C@@H](CC(=O)O)C(=O)N[C@@H](CCCNC(=N)N)C(=O)NC(C)(C)C(=O)N[C@@H](CCCCNC(=O)CNC(=O)CNC(=O)[C@@H]1CCCN1C(=O)[C@H](C)NC(=O)[C@@H]1CCCN1C(=O)[C@H](C)NC(=O)[C@@H]1CCCN1C(=O)CC[C@H](NC(=O)CCCCCCCCCCCCCCCCC(=O)O)C(=O)O)C(=O)N[C@@H](CCC(N)=O)C(=O)NC(C)(C)C(=O)N[C@@H](CC(=O)O)C(=O)N[C@@H](Cc1ccccc1)C(=O)N[C@H](C(=O)N[C@@H](CC(N)=O)C(=O)N[C@@H](Cc1c[nH]c2ccccc12)C(=O)N[C@@H](CC(C)C)C(=O)N[C@@H](CC(C)C)C(=O)N[C@@H](C)C(=O)N[C@@H](CCC(N)=O)C(=O)N[C@@H](CO)C(=O)N1CCC[C@H]1C(=O)NCC(=O)O)C(C)C [Compound 136] (I: H-[NMeY][Aib]EGTFISDYSIALDR[Aib]KQ[Aib]DFVNWLLAQSPG-OH / II: {C18 diacid-γGlu}-PAPAPGG; amide I:18-II:C)			≥ 15 mg/mL	≥ 30 mg/mL
CC[C@H](C)[C@H](NC(=O)[C@H](CO)NC(=O)[C@H](Cc1ccc(O)cc1)NC(=O)[C@H](CC(=O)O)NC(=O)[C@H](CO)NC(=O)[C@@H](NC(=O)[C@H](Cc1ccccc1)NC(=O)[C@@H](NC(=O)CNC(=O)[C@H](CCC(=O)O)NC(=O)C(C)(C)NC(=O)[C@@H](N)Cc1ccc(O)cc1)[C@@H](C)O)[C@@H](C)CC)C(=O)N[C@@H](C)C(=O)N[C@@H](CC(C)C)C(=O)N[C@@H](CC(=O)O)C(=O)N[C@@H](CCCNC(=N)N)C(=O)NC(C)(C)C(=O)N[C@@H](C)C(=O)N[C@@H](CCC(N)=O)C(=O)NC(C)(C)C(=O)N[C@@H](CCCCNC(=O)COCCOCCNC(=O)COCCOCCNC(=O)CC[C@H](NC(=O)CC[C@H](NC(=O)CCCCCCCCCCCCCCCC(=O)O)C(=O)O)C(=O)O)C(=O)N[C@@H](Cc1ccccc1)C(=O)N[C@H](C(=O)N[C@@H](CC(N)=O)C(=O)N[C@@H](Cc1c[nH]c2ccccc12)C(=O)N[C@@H](CC(C)C)C(=O)N[C@@H](CC(C)C)C(=O)N[C@@H](C)C(=O)N[C@@H](CCC(N)=O)C(=O)N[C@@H](CCCNC(=N)N)C(=O)NCC(=O)O)C(C)C [Compound 140] (H-Y[Aib]EGTFISDYSIALDR[Aib]AQ[Aib]K([AEEA-AEEA-γGlu-γGlu-C17 diacid])FVNWLLAQRG-OH)			≥ 15 mg/mL	≥ 30 mg/mL
CC[C@H](C)[C@H](NC(=O)[C@H](Cc1ccccc1)NC(=O)[C@@H](NC(=O)CNC(=O)[C@H](CCC(=O)O)NC(=O)C(C)(C)NC(=O)[C@@H](N)Cc1ccc(O)cc1)[C@@H](C)O)C(=O)N[C@@H](CO)C(=O)N[C@@H](CC(=O)O)C(=O)N[C@@H](Cc1ccc(O)cc1)C(=O)N[C@@H](CO)C(=O)N[C@H](C(=O)NC(C)(C)C(=O)N[C@@H](CC(C)C)C(=O)N[C@@H](CC(=O)O)C(=O)N[C@@H](CCCNC(=N)N)C(=O)NC(C)(C)C(=O)N[C@@H](C)C(=O)N[C@@H](CCC(N)=O)C(=O)NC(C)(C)C(=O)N[C@@H](CCCCNC(=O)COCCOCCNC(=O)COCCOCCNC(=O)CC[C@H](NC(=O)CC[C@H](NC(=O)CCCCCCCCCCCCCCCCC(=O)O)C(=O)O)C(=O)O)C(=O)N[C@@H](Cc1ccccc1)C(=O)N[C@H](C(=O)N[C@@H](CC(N)=O)C(=O)N[C@@H](Cc1c[nH]c2ccccc12)C(=O)N[C@@H](CC(C)C)C(=O)N[C@@H](CC(C)C)C(=O)N[C@@H](C)C(=O)N[C@@H](CCC(N)=O)C(=O)N[C@@H](CCCNC(=N)N)C(=O)NCC(=O)O)C(C)C)[C@@H](C)CC [Compound 141] (H-Y[Aib]EGTFISDYSI[Aib]LDR[Aib]AQ[Aib]K([AEEA-AEEA-γGlu-γGlu-C18 diacid])FVNWLLAQRG-OH)			≥ 15 mg/mL	≥ 30 mg/mL
